Reference: patent US20100311767A1 (priority 2007, published 2010)

Tested on: cultured hippocampal neurons

| Compound | frequency of spontaneous IPSCs | amplitude of miniature PSCs | frequency of miniature PSCs |
| --- | --- | --- | --- |
| CC(C)NCC(O)c1ccc(O)c(O)c1 (stereo not drawn) [isoproterenol, 4-[1-hydroxy-2-(1-methylethylamino)ethyl]benzene-1,2-diol] | 122±58% | – | – |
| ω-agatoxin IVA | – | 90±7% | 27±7% |
